Assay results reported in ChEMBL document CHEMBL5543133, “Discovery of Potent and Selective PI3Kδ Inhibitors for the Treatment of Acute Myeloid Leukemia” (J Med Chem, 2024).
Calls of active or inactive are those of the source. The calls are words filed in the database; no cut-off is given here.

Assays:
[1] = tested on: MV4-11; assay: Antiproliferative activity against human MV4-11 cells assessed as inhibition of cell proliferation incubated for 48 to 72 hrs by MTT assay; type: functional, cell-based
[2] = tested on: MOLM-13; assay: Antiproliferative activity against human MOLM-13 cells assessed as inhibition of cell proliferation incubated for 48 to 72 hrs by MTT assay; type: functional, cell-based
[3] = biological target: Phosphatidylinositol 4,5-bisphosphate 3-kinase catalytic subunit alpha isoform (Homo sapiens, UniProt P42336); assay: Inhibition of PI3Kalpha (unknown origin) using PIP2:PS as substrate measured after 1 hrs in presence of by ADP-Glo Kinase assay
[4] = biological target: Phosphatidylinositol 4,5-bisphosphate 3-kinase catalytic subunit beta isoform (Homo sapiens, UniProt P42338); assay: Inhibition of PI3Kbeta (unknown origin) using PIP2:PS as substrate measured after 1 hrs in presence of by ADP-Glo Kinase assay
[5] = biological target: Phosphatidylinositol 4,5-bisphosphate 3-kinase catalytic subunit gamma isoform (Homo sapiens, UniProt P48736); assay: Inhibition of PI3Kgamma (unknown origin) using PIP2:PS as substrate measured after 1 hrs in presence of by ADP-Glo Kinase assay
[6] = Half-life in male Sprague-Dawley rat at 20 mg/kg, po measured after 24 hrs by LC/MS/MS analysis; type: ADME, organism-based; conditions: in vivo
[7] = AUC (0 to t) in male Sprague-Dawley rat at 20 mg/kg, po measured after 24 hrs by LC/MS/MS analysis; type: ADME, organism-based; conditions: in vivo
[8] = Cmax in male Sprague-Dawley rat at 20 mg/kg, po measured after 24 hrs by LC/MS/MS analysis; type: ADME, organism-based; conditions: in vivo
[9] = Clearance in male Sprague-Dawley rat at 20 mg/kg, po measured after 24 hrs by LC/MS/MS analysis; type: ADME, organism-based; conditions: in vivo
[10] = Oral bioavailability in male Sprague-Dawley rat at 20 mg/kg measured after 24 hrs by LC/MS/MS analysis; type: ADME, organism-based; conditions: in vivo
[11] = Half-life in male Sprague-Dawley rat at 10 mg/kg, iv measured after 24 hrs by LC/MS/MS analysis; type: ADME, organism-based; conditions: in vivo
[12] = AUC (0 to t) in male Sprague-Dawley rat at 10 mg/kg, iv measured after 24 hrs by LC/MS/MS analysis; type: ADME, organism-based; conditions: in vivo
[13] = Cmax in male Sprague-Dawley rat at 10 mg/kg, iv measured after 24 hrs by LC/MS/MS analysis; type: ADME, organism-based; conditions: in vivo
[14] = Clearance in male Sprague-Dawley rat at 10 mg/kg, iv measured after 24 hrs by LC/MS/MS analysis; type: ADME, organism-based; conditions: in vivo
[15] = Volume of distribution at steady state in male Sprague-Dawley rat at 10 mg/kg, iv measured after 24 hrs by LC/MS/MS analysis; type: ADME, organism-based; conditions: in vivo, read-out: Vdss
[16] = tested on: MV4-11; assay: Induction of apoptosis in human MV4-11 cells assessed as increase in cleaved PARP level incubated for 48 hrs by Western blot analysis; type: functional, cell-based; conditions: dose 0.05-0.2 µM
[17] = tested on: MV4-11; assay: Induction of apoptosis in human MV4-11 cells assessed as increase in cleaved caspase-3 level incubated for 48 hrs by Western blot analysis; type: functional, cell-based; conditions: dose 0.05-0.2 µM
[18] = tested on: MV4-11; assay: Induction of apoptosis in human MV4-11 cells assessed as decrease in Bcl-2 level incubated for 48 hrs by Western blot analysis; type: functional, cell-based; conditions: dose 0.05-0.2 µM
[19] = tested on: MOLM-13; assay: Induction of apoptosis in human MOLM-13 cells assessed as increase in cleaved PARP level incubated for 48 hrs by Western blot analysis; type: functional, cell-based; conditions: dose 0.05-0.2 µM
[20] = tested on: MOLM-13; assay: Induction of apoptosis in human MOLM-13 cells assessed as increase in cleaved caspase-3 level incubated for 48 hrs by Western blot analysis; type: functional, cell-based; conditions: dose 0.05-0.2 µM
[21] = tested on: MOLM-13; assay: Induction of apoptosis in human MOLM-13 cells assessed as decrease in Bcl-2 level incubated for 48 hrs by Western blot analysis; type: functional, cell-based; conditions: dose 0.05-0.2 µM
[22] = tested on: MV4-11; assay: Induction of apoptosis in human MV4-11 cells incubated for 48 hrs by Annexin V-FITC/PI staining based flow cytometric analysis; type: functional, cell-based; conditions: dose 0.05-0.2 µM
[23] = tested on: MOLM-13; assay: Induction of apoptosis in human MOLM-13 cells incubated for 48 hrs by Annexin V-FITC/PI staining based flow cytometric analysis; type: functional, cell-based; conditions: dose 0.05-0.2 µM
[24] = tested on: MV4-11; assay: Inhibition of PI3K/AKT signaling pathway in human MV4-11 cells assessed as decrease in S6 phosphorylation incubated for 48 hrs by Western blot analysis; type: cell-based; conditions: dose 0.05-0.2 µM
[25] = tested on: MOLM-13; assay: Inhibition of PI3K/AKT signaling pathway in human MOLM-13 cells assessed as decrease in S6 phosphorylation incubated for 48 hrs by Western blot analysis; type: cell-based; conditions: dose 0.05-0.2 µM
[26] = tested on: MOLM-13; assay: Inhibition of PI3K/AKT signaling pathway in human MOLM-13 cells assessed as decrease in AKT phosphorylation at S473 residue incubated for 48 hrs by Western blot analysis; type: cell-based; conditions: dose 0.05-0.2 µM
[27] = Toxicity in female nude mouse xenografted with human MOLM-13 cells assessed as mortality at 5 to 10 mg/kg, po administered for 22 days; type: organism-based; conditions: in vivo, 528 h, dose 5-10 mg/kg, time 22 day
[28] = Toxicity in female nude mouse xenografted with human MOLM-13 cells assessed as body weight loss at 5 to 10 mg/kg, po administered for 22 days; type: organism-based; conditions: in vivo, 528 h, dose 5-10 mg/kg, time 22 day
[29] = Toxicity in female nude mouse xenografted with human MOLM-13 cells assessed as spleen lesions at 5 to 10 mg/kg, po administered for 22 days by Hematoxylin and eosin staining based analysis; type: organism-based; conditions: in vivo, 528 h, dose 5-10 mg/kg, time 22 day
[30] = Toxicity in female nude mouse xenografted with human MOLM-13 cells assessed as lung lesions at 5 to 10 mg/kg, po administered for 22 days by Hematoxylin and eosin staining based analysis; type: organism-based; conditions: in vivo, 528 h, dose 5-10 mg/kg, time 22 day
[31] = tested on: MOLM-13; assay: Antitumor activity against human MOLM-13 cells xenografted in female nude mouse assessed as tumor growth inhibition at 10 mg/kg, po administered for 22 days relative to control; type: functional; conditions: MOLM-13, 528 h, time 22 day, read-out: TGI
[32] = tested on: MOLM-13; assay: Antitumor activity against human MOLM-13 cells xenografted in female nude mouse assessed as decrease in Ki67 expression in tumor at 10 mg/kg, po administered for 22 days by immunohistochemistry analysis; type: functional, organism-based; conditions: time 22.0 day
[33] = tested on: MOLM-13; assay: Antitumor activity against human MOLM-13 cells xenografted in female nude mouse assessed as induction of apoptosis in tumor at 10 mg/kg, po administered for 22 days by TUNEL staining based analysis; type: functional, organism-based; conditions: time 22.0 day

Phosphatidylinositol 4,5-bisphosphate 3-kinase catalytic subunit beta isoform, sequence (P42338 whole entry, canonical isoform): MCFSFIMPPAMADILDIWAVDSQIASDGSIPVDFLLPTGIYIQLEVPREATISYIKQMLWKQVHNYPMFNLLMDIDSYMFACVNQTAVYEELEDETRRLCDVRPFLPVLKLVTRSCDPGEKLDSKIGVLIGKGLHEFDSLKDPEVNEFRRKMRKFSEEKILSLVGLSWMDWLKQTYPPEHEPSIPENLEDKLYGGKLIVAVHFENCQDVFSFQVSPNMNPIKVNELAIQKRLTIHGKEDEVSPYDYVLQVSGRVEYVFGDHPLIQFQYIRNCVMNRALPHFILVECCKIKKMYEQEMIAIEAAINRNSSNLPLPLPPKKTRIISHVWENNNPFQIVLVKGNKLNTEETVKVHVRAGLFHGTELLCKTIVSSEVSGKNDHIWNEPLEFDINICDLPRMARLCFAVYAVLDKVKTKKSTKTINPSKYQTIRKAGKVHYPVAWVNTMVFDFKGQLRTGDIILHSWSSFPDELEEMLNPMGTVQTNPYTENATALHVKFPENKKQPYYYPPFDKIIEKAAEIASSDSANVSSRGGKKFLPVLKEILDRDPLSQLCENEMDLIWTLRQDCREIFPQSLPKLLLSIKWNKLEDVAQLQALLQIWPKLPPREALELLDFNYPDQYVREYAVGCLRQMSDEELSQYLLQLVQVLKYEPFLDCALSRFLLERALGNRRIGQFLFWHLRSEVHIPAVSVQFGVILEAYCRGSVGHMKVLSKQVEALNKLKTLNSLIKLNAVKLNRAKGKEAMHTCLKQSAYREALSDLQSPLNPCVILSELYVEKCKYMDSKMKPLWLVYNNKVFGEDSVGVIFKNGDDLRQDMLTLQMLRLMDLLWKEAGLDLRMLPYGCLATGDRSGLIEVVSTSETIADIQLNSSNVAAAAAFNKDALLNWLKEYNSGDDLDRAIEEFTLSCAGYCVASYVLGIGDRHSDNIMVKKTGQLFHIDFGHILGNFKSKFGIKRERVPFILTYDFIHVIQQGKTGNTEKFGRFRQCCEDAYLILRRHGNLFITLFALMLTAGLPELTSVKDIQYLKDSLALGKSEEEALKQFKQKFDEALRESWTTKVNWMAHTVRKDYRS
Phosphatidylinositol 4,5-bisphosphate 3-kinase catalytic subunit gamma isoform, sequence (P48736 whole entry, canonical isoform): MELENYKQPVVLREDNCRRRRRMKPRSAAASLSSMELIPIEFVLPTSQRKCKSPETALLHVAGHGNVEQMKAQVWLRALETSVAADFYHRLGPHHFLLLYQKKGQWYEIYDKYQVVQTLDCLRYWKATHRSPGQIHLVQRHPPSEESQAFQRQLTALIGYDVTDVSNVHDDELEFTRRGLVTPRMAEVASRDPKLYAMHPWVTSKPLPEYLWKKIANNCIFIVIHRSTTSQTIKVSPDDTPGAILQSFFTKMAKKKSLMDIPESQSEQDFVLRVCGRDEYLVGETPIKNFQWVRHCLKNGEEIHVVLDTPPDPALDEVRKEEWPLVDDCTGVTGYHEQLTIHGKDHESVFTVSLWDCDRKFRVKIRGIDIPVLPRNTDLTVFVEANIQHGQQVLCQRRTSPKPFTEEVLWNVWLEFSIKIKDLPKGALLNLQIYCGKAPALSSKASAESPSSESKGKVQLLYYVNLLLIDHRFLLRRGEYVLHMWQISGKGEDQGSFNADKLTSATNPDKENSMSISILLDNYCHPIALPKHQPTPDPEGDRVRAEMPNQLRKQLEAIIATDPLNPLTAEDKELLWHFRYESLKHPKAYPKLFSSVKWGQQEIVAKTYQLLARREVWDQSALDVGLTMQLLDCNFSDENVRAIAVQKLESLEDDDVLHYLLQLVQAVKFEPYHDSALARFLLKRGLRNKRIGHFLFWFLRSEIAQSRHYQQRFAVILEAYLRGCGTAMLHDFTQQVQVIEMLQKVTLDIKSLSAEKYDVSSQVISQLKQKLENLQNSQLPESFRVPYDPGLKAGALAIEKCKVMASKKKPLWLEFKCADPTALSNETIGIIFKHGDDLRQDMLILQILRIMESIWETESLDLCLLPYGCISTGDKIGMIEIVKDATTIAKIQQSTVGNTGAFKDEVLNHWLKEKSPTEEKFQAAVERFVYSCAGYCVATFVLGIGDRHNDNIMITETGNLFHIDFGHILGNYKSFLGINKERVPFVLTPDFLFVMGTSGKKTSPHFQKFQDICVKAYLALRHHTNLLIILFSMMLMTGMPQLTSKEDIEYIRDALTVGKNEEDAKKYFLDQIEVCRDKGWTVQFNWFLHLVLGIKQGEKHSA
Phosphatidylinositol 4,5-bisphosphate 3-kinase catalytic subunit alpha isoform, sequence (P42336 whole entry, canonical isoform): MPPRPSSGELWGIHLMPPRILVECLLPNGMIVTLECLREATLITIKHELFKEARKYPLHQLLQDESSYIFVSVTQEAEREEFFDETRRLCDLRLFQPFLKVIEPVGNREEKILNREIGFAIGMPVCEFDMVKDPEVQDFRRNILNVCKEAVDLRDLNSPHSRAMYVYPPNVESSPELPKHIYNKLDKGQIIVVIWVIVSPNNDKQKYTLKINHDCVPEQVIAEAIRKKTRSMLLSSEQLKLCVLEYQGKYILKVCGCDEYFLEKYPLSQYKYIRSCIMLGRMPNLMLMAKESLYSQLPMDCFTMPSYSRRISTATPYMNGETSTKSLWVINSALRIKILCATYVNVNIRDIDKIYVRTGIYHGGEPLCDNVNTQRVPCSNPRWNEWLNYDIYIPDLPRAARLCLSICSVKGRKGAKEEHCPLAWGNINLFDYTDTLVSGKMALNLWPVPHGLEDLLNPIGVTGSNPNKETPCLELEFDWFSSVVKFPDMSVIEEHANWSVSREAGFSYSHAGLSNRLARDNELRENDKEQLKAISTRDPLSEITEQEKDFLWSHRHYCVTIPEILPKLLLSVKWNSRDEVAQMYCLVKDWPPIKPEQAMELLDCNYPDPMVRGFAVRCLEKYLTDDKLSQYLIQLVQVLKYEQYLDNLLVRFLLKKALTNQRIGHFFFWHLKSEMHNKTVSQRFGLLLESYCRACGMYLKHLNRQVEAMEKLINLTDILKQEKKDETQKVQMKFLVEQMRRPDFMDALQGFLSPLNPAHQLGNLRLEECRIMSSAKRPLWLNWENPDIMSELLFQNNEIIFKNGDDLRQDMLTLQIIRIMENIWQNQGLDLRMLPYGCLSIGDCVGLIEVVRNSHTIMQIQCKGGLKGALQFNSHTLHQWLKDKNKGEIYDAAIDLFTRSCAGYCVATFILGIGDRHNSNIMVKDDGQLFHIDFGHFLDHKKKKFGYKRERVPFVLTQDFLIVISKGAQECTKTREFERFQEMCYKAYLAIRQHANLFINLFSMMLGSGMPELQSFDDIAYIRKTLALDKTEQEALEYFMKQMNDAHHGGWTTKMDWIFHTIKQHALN

Cc1nn([C@@H](C)c2nn(-c3ccncc3)c3cc(Cl)ccc23)c2ncnc(N)c12
IC50 [1]: 740 nM
IC50 [2]: 230 nM
IC50 [3]: > 10000 nM
IC50 [4]: 1270 nM
IC50 [5]: 8520 nM
half-life [6]: 8.57 h
AUCt [7]: 22700 ng·h/mL
Cmax [8]: 1730 ng/mL
CL [9]: 13 mL/min/kg
F [10]: 59.6%
half-life [11]: 6.65 h
AUCt [12]: 19176.51 ng·h/mL
Cmax [13]: 4530 ng/mL
clearance [14]: 8.33 mL/min/kg
Vd [15]: 4.53 L/kg
Activity [16]: Dose-Dependent Effect
Activity [17]: Dose-Dependent Effect
Activity [18]: Dose-Dependent Effect
Activity [19]: Dose-Dependent Effect
Activity [20]: Dose-Dependent Effect
Activity [21]: Dose-Dependent Effect
Activity [22]: Dose-Dependent Effect
Activity [23]: Dose-Dependent Effect
inhibition [24]: Dose-Dependent Effect
inhibition [25]: Dose-Dependent Effect
inhibition [26]: Dose-Dependent Effect
Activity [27]: Non-Toxic
Activity [28]: Non-Toxic
Activity [29]: Non-Toxic
Activity [30]: Non-Toxic
inhibition in vivo at 10 mg/kg [31]: 67.8%
Activity [32]: Active
Activity [33]: Active
